Source: patent EP2100894A1, “Pyridopyrimidines used as Plk1 (polo-like kinase) inhibitors” (4SC AG, priority 2008, dated 2009)

Biological target: T1, PIk1 (Homo sapiens, UniProt P53350)
T1 construct: His tag (histidine tag) (N); made in house; host or cells: SF9 insect cells
Experiment: PIk1 kinase activity inhibition assay (33P incorporation into alpha casein, flash plates)
Assay type: biochemical
Conditions: recombinant N-terminally histidine-tagged PIk1, alpha casein as substrate, 100 nM Li-ATP, 80 minutes at 30°C
In short: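 N-terminally His-tagged human Plk1 from SF9 cells (50–100 ng/well) phosphorylated alpha casein with 100 nM Li-ATP plus 33P-ATP in HEPES pH 7.5, MgCl2/MnCl2 buffer for 80 minutes at 30°C. After H3PO4 stop and washing, casein-bound 33P was counted on scintillator-coated flash plates to derive IC50.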

T1 sequence (P53350 whole entry): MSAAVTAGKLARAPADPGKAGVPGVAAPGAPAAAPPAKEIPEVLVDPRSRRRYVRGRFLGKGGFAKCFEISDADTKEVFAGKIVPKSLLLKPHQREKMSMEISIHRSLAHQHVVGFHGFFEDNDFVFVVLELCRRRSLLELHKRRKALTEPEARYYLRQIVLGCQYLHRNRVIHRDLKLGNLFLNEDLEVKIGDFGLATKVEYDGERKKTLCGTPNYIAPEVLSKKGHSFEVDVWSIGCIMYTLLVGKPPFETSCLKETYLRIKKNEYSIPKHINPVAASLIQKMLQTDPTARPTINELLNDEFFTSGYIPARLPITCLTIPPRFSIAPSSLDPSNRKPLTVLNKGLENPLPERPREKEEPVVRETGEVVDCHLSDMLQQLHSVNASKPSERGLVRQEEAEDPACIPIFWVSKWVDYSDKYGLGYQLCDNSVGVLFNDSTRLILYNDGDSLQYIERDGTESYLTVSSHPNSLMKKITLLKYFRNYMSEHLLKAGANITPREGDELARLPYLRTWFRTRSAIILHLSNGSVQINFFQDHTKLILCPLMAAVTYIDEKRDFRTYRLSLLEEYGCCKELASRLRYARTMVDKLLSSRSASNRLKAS

Row | Structure (SMILES) | IC50 [nM]
1 | COc1cc(C(=O)NC2CCN(C)CC2)ccc1Nc1ncc2c(n1)c(-c1ccccc1C)c(OCC1CC1)c(=O)n2C [Example 71, 4-{[7-(cyclopropylmethoxy)-5-methyl-8-(2-methylphenyl)-6-oxo-5,6-dihydropyrido[3,2-d]pyrimidin-2-yl]amino}-3-methoxy-N-(1-methylpiperidin-4-yl)benzamide] | < 100
2 | CCc1cc(C(=O)NC2CCN(C)CC2)ccc1Nc1ncc2c(n1)c(-c1ccsc1)c(OCC1CC1)c(=O)n2C [Example 72, 4-{[7-(cyclopropylmethoxy)-5-methyl-6-oxo-8-(3-thienyl)-5,6-dihydro-pyrido[3,2-d]pyrimidin-2-yl]amino}-3-ethyl-N-(1-methylpiperidin-4-yl)benzamide] | < 10
3 | COc1cc(C(=O)NC2CCN(C)CC2)ccc1Nc1ncc2c(n1)c(-c1ccc[nH]1)c(OCC1CC1)c(=O)n2C [Example 73, 4-{[7-(cyclopropylmethoxy)-5-methyl-6-oxo-8-(1H-pyrrol-2-yl)-5,6-dihydro-pyrido[3,2-d]pyrimidin-2-yl]amino}-3-methoxy-N-(1-methylpiperidin-4-yl)benzamide] | < 10
4 | COc1cc(C(=O)NC2CCN(C)CC2)ccc1Nc1ncc2c(n1)c(-c1ccccn1)c(OCC1CC1)c(=O)n2C [Example 74, 4-{[7-(cyclopropylmethoxy)-5-methyl-6-oxo-8-pyridin-2-yl-5,6-dihydro-pyrido[3,2-d]pyrimidin-2-yl]amino}-3-methoxy-N-(1-methylpiperidin-4-yl)benzamide] | < 10
5 | CCOc1cc(C(=O)NC2CCN(C)CC2)ccc1Nc1ncc2c(n1)c(-c1ccsc1)c(OCC1CC1)c(=O)n2C [Example 75, 4-{[7-(cyclopropylmethoxy)-5-methyl-6-oxo-8-(3-thienyl)-5,6-dihydro-pyrido[3,2-d]pyrimidin-2-yl]amino}-3-ethoxy-N-(1-methylpiperidin-4-yl)benzamide] | < 10
6 | COc1cc(C(=O)NC2CCN(C)CC2)ccc1Nc1ncc2c(n1)c(-c1cc[nH]c1)c(OCC1CC1)c(=O)n2C [Example 76, 4-{[7-(cyclopropylmethoxy)-5-methyl-6-oxo-8-(1H-pyrrol-3-yl)-5,6-dihydro-pyrido[3,2-d]pyrimidin-2-yl]amino}-3-methoxy-N-(1-methylpiperidin-4-yl)benzamide] | < 10
